The text below walks through data of US20250197387A1, “BCL-XL DEGRADERS AND USES THEREOF” (Kymera Therapeutics, Inc., priority 2021, published 2025).

Assay type in all cases: cell-based
The target in one assay is T1, BCL-XL (Homo sapiens, UniProt Q07817).
T1 construct: endogenous in cells; host or cells: MOLT-4
The assay can be described thus: Bcl-xL ELISA degradation in MOLT-4 cells, 6 h. Conditions: for DC50: read-out: Bcl-xL ELISA in MOLT-4 degradation 6 h: Mean external-Abs DC50. How it is done:
The letter codes for BCL-XL DC50 include: A (<0.01 μM); B (0.01-0.1 μM); C (>[…]); D (>0.5-1.0 μM); and E (>1.0 μM). The letter codes for Dmax % include A (>75%); B (50 to 75%); C (<50%).
In general terms: An ELISA detects its analyte on a solid surface through an enzyme-linked reagent.

A further assay deals with MOLT-4 cells. The assay can be described thus: CTG (CellTiter-Glo) cell viability assay, MOLT-4. As to conditions: Homo sapiens, 3 day incubation, read-out: CTG Cell Viability Assay - MOLT-4 3 day: Average external-IC50. In short, it runs like this:
(§1)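 IC50 is from a three-parameter logistic fit of CellTiter-Glo luminescence after 3-day treatment of cells seeded at 10,000 per well. Codes: MOLT-4 A <0.1, B 0.1-1.0, C >1.0-3.0, D >3.0 μM; Caki-2 A <0.1, B 0.1-1.0, C >1.0-10.0, D >10.0 μM.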
(In general: Cellular ATP, detected with luciferase, serves as a proxy for viable cell number.)

Another assay concerns Caki-2 cells. The assay can be described thus: CTG (CellTiter-Glo) cell viability assay, Caki-2. Conditions: Homo sapiens, 72 h, 3 day incubation, read-out: CTG Chempartner - Caki-2 3 day: Average external-IC50. Summed up:
as §1

Broadly, the Dmax is the largest share of the target that was removed. Low values mean shallow degradation, high ones deep degradation. Usually DC50 stands for the concentration at which degradation of the target reaches its halfway point. One may read the IC50 as the concentration at which inhibition is half-maximal.

Structures are written as SMILES. Read-outs that look alike come from different tables or passages of the source.

T1 sequence (Q07817 whole entry): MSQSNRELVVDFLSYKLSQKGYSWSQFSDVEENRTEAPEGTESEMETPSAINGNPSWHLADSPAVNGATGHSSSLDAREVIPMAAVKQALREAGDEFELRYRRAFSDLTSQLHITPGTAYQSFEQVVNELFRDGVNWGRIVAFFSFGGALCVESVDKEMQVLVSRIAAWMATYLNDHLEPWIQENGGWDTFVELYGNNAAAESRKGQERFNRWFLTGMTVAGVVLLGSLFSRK

Regarding `Cc1ncsc1-c1ccc([C@H](C)NC(=O)[C@@H]2C[C@@H](O)CN2C(=O)[C@@H](NC(=O)C2CN(c3ccc(S(=O)(=O)NC(=O)c4nc(N5CCc6cccc(C(=O)Nc7nc8ccccc8s7)c6C5)ccc4-c4cnn(CC5CCCCC5)c4C)cc3)C2)C(C)(C)C)cc1` [I-343], on BCL-XL, the Dmax was more than 75% and the DC50 lay within 10 to 100 nM. Also, the IC50 with MOLT-4 cells (MOLT-4, 72 h) is less than 100 nM. In addition, the IC50 in the assay with Caki-2 cells lay in the range of 1000 to 10000 nM.
For the molecule `C#Cc1ccc(CNC(=O)[C@@H]2C[C@@H](O)CN2C(=O)[C@@H](NC(=O)CCCCCS(=O)(=O)NC(=O)c2nc(N3CCc4cccc(C(=O)Nc5nc6ccccc6s5)c4C3)ccc2-c2cnn(CC3CCCC3)c2C)C(C)(C)C)cc1` [I-444], at BCL-XL, the Dmax was more than 75% and the DC50 was less than 10 nM. Moreover, the IC50 with MOLT-4 cells (MOLT-4, 72 h) was less than 100 nM. Further, the IC50 in the assay with Caki-2 cells is more than 10000 nM.
Taken in the same sequence, the figures for `Cc1ncsc1-c1ccc([C@H](C)NC(=O)[C@@H]2C[C@@H](O)CN2C(=O)[C@@H](NC(=O)CCNCCS(=O)(=O)NC(=O)c2nc(N3CCc4cccc(C(=O)Nc5nc6cccnc6s5)c4C3)ccc2-c2cnn(CC3CCCCC3)c2C)C(C)(C)C)cc1` [I-376] were more than 75%, 10 to 100 nM, more than 3000 nM and more than 10000 nM.
In the case of `C#Cc1ccc(CNC(=O)[C@@H]2C[C@@H](O)CN2C(=O)[C@@H](NC(=O)CCCCCS(=O)(=O)NC(=O)c2nc(N(C)c3cc(C)c(Nc4nc5ccccc5s4)nn3)ccc2-c2cnn(CC34CC5CC(CC(C5)C3)C4)c2C)C(C)(C)C)cc1` [I-379], on BCL-XL, the Dmax was more than 75% and the 50% degradation concentration (DC50) is less than 10 nM. Further, in the assay with MOLT-4 cells (MOLT-4, 72 h), the IC50 is less than 100 nM. For the same molecule, the IC50 with Caki-2 cells was more than 10000 nM.
On BCL-XL, `Cc1ncsc1-c1ccc([C@H](C)NC(=O)[C@@H]2C[C@@H](O)CN2C(=O)[C@@H](NC(=O)CN2CCC(CS(=O)(=O)NC(=O)c3nc(N4CCc5cccc(C(=O)Nc6nc7ccccc7s6)c5C4)ccc3-c3cnn(CC4CCCCC4)c3C)CC2)C(C)(C)C)cc1` [I-335] returned a Dmax of more than 75%. Moreover, the DC50 on BCL-XL was less than 10 nM. For the same molecule, the results for the IC50 with MOLT-4 cells (72 h) and in the assay on Caki-2 cells were less than 100 nM and 1000 to 10000 nM, respectively.
In the case of `C#Cc1ccc(CNC(=O)[C@@H]2C[C@@H](O)CN2C(=O)[C@@H](NC(=O)CCN(C)CCS(=O)(=O)NC(=O)c2nc(N(C)c3cc(C)c(Nc4nc5ccccc5s4)nn3)ccc2-c2cnn(CC34CC5CC(CC(C5)C3)C4)c2C)C(C)(C)C)cc1` [I-430], at BCL-XL, the Dmax was more than 75%. Moreover, the DC50 on BCL-XL fell in the range of 10 to 100 nM. Besides, the IC50 with MOLT-4 cells (MOLT-4, 72 h) is less than 100 nM; with Caki-2 cells, more than 10000 nM.
Taken in the same sequence, the figures for `Cc1ncsc1-c1ccc(CNC(=O)[C@@H]2C[C@@H](O)CN2C(=O)[C@@H](NC(=O)CCCc2cc(F)cc(S(=O)(=O)NC(=O)c3nc(N4CCc5cccc(C(=O)Nc6nc7ccccc7s6)c5C4)ccc3-c3cnn(CC4CCCCC4)c3C)c2)C(C)(C)C)cc1` [I-374] were more than 75%, less than 10 nM, less than 100 nM and 1000 to 10000 nM.
Taken in the same sequence, the figures for `Cc1ncsc1-c1ccc([C@H](C)NC(=O)[C@@H]2C[C@@H](O)CN2C(=O)[C@@H](NC(=O)CCCc2ccc(S(=O)(=O)NCc3nc(N4CCc5cccc(C(=O)Nc6nc7ccccc7s6)c5C4)ccc3-c3cnn(CC4CCCCC4)c3C)cc2)C(C)(C)C)cc1` [I-307] were less than 50%, more than 1000 nM, 1000 to 3000 nM and more than 10000 nM.
The corresponding values for `Cc1c(-c2ccc(N3CCc4cccc(C(=O)Nc5nc6cccnc6s5)c4C3)nc2C(=O)NS(=O)(=O)CCCCCC(=O)N[C@H](C(=O)N2C[C@H](O)C[C@H]2C(=O)N[C@H](C)c2ccc(C#N)cc2O)C(C)(C)C)cnn1CC1CCCCC1` (single isomer, unassigned) [I-486] are more than 75%, 10 to 100 nM, 100 to 1000 nM and more than 10000 nM.
Regarding `Cc1ncsc1-c1ccc([C@H](C)NC(=O)[C@@H]2C[C@@H](O)CN2C(=O)[C@@H](NC(=O)C2CCN(c3ccc(S(=O)(=O)NC(=O)c4nc(N5CCc6cccc(C(=O)Nc7nc8ccccc8s7)c6C5)ccc4-c4ccnc(OC(C)C)c4C)cc3)CC2)C(C)(C)C)cc1` [I-300], on BCL-XL, the Dmax lay within 50 to 75% and the DC50 was in the range of 100 to 500 nM. Moreover, in the assay on MOLT-4 cells (MOLT-4, 72 h), the IC50 lay within 100 to 1000 nM. Besides, in the assay with Caki-2 cells, the IC50 lay within 1000 to 10000 nM.
Taken in the same sequence, the figures for `Cc1ncsc1-c1ccc(CNC(=O)[C@@H]2C[C@@H](O)CN2C(=O)[C@@H](NC(=O)CCc2ccc(S(=O)(=O)NC(=O)c3nc(N4CCc5cccc(C(=O)Nc6nc7ccccc7s6)c5C4)ccc3-c3cnn(CC4CCCCC4)c3C)c(F)c2)C(C)(C)C)cc1` [I-320] were more than 75%, 100 to 500 nM, 1000 to 3000 nM and more than 10000 nM.
The corresponding values for `C#Cc1ccc(CNC(=O)[C@@H]2C[C@@H](O)CN2C(=O)[C@@H](NC(=O)C2CN(c3ccc(S(=O)(=O)NC(=O)c4nc(N5CCc6cccc(C(=O)Nc7nc8ccccc8s7)c6C5)ccc4-c4cnn(CC5CCCCC5)c4C)cc3F)C2)C(C)(C)C)cc1` [I-358] are more than 75%, 10 to 100 nM, less than 100 nM and 1000 to 10000 nM.
The corresponding values for `C#Cc1ccc(CNC(=O)[C@@H]2C[C@@H](O)CN2C(=O)[C@@H](NC(=O)CCN(C)CCS(=O)(=O)NC(=O)c2nc(N3CCc4cccc(C(=O)Nc5nc6cccnc6s5)c4C3)ccc2-c2cnn(CC3CCCCC3)c2C)C(C)(C)C)cc1` [I-413] are more than 75%, 10 to 100 nM, 100 to 1000 nM and more than 10000 nM.
With `Cc1ncsc1-c1ccc([C@H](C)NC(=O)[C@@H]2C[C@@H](OC(=O)CCP(=O)(O)O)CN2C(=O)[C@@H](NC(=O)C2CCN(c3ccc(S(=O)(=O)NC(=O)c4nc(N5CCc6cccc(C(=O)Nc7nc8ccccc8s7)c6C5)ccc4-c4cnn(CC5CCCCC5)c4C)cc3)CC2)C(C)(C)C)cc1` [I-350], at BCL-XL, the Dmax was more than 75% and the DC50 lay within 10 to 100 nM. Further, in the assay on MOLT-4 cells (72 h), the IC50 lay in the range of 100 to 1000 nM. Moreover, in the assay on Caki-2 cells, the IC50 lay in the range of 1000 to 10000 nM.
The molecule `Cc1ncsc1-c1ccc([C@H](C)NC(=O)[C@@H]2C[C@@H](O)CN2C(=O)[C@H](c2cc(OC3CC4(C3)CN(C(=O)c3nc(N5CCc6cccc(C(=O)Nc7nc8ccccc8s7)c6C5)ccc3-c3cnn(CC5CCCCC5)c3C)C4)no2)C(C)C)cc1` [I-293] returned a Dmax on BCL-XL of less than 50%. Moreover, the DC50 at BCL-XL fell in the range of 500 to 1000 nM. Besides, the IC50 was 1000 to 3000 nM with MOLT-4 cells (MOLT-4, 72 h) and 1000 to 10000 nM in the assay on Caki-2 cells.
On to `Cc1cc(N(C)c2ccc(-c3cnn(CC45CC6CC(CC(C6)C4)C5)c3C)c(C(=O)NS(=O)(=O)CCCCCC(=O)N[C@H](C(=O)N3C[C@H](O)C[C@H]3C(=O)N[C@@H](C)c3ccc(C#N)cc3)C(C)(C)C)n2)nnc1Nc1nc2ccccc2s1` [I-464], for which the Dmax on BCL-XL is more than 75%. Moreover, the DC50 on BCL-XL was in the range of 10 to 100 nM. Further, the IC50 with MOLT-4 cells (MOLT-4, 72 h) was 100 to 1000 nM; in the assay with Caki-2 cells it was more than 10000 nM.
The corresponding values for `Cc1ncsc1-c1ccc([C@H](C)NC(=O)[C@@H]2C[C@@H](O)CN2C(=O)[C@@H](NC(=O)N2CC(CN3CCC(S(=O)(=O)NC(=O)c4nc(N5CCc6cccc(C(=O)Nc7nc8ccccc8s7)c6C5)ccc4-c4cnn(CC5CCCCC5)c4C)CC3)C2)C(C)(C)C)cc1` [I-336] are more than 75%, 10 to 100 nM, 1000 to 3000 nM and more than 10000 nM.
In the case of `Cc1ncsc1-c1ccc(CNC(=O)[C@@H]2C[C@@H](O)CN2C(=O)[C@@H](NC(=O)C2CN(CCS(=O)(=O)NC(=O)c3nc(N4CCc5cccc(C(=O)Nc6nc7ccccc7s6)c5C4)ccc3-c3cnn(CC4CCCCC4)c3C)C2)C(C)(C)C)cc1` [I-422], at BCL-XL, the Dmax was more than 75% and the DC50 is 100 to 500 nM. Moreover, the concentration for half-maximal inhibition (IC50) in the assay with MOLT-4 cells (MOLT-4, 72 h) is 100 to 1000 nM. For the same molecule, the IC50 in the assay with Caki-2 cells is more than 10000 nM.
Taken in the same sequence, the figures for `Cc1ncsc1-c1ccc([C@H](C)NC(=O)[C@@H]2C[C@@H](O)CN2C(=O)[C@@H](NC(=O)CCCCCS(=O)(=O)NC(=O)c2nc(N3CCc4cccc(C(=O)Nc5nc6ccccc6s5)c4C3)ccc2-c2cccc3c2cnn3C(C)C)C(C)(C)C)cc1` [I-302] were 50 to 75%, 500 to 1000 nM, 1000 to 3000 nM and 1000 to 10000 nM.
Take `COc1nn(C)c2ccc([C@@H](C)NC(=O)[C@@H]3C[C@@H](O)CN3C(=O)[C@@H](NC(=O)CCCCCS(=O)(=O)NC(=O)c3nc(N4CCc5cccc(C(=O)Nc6nc7cccnc7s6)c5C4)ccc3-c3cnn(CC4CCCCC4)c3C)C(C)(C)C)cc12` [I-490]: the Dmax on BCL-XL is more than 75%. Besides, the DC50 at BCL-XL fell in the range of 100 to 500 nM. For the same molecule, the IC50 with MOLT-4 cells (MOLT-4, 72 h) was 100 to 1000 nM; in the assay on Caki-2 cells, more than 10000 nM.
Taken in the same sequence, the figures for `C#Cc1ccc(CNC(=O)[C@@H]2C[C@@H](O)CN2C(=O)[C@@H](NC(=O)CCc2ccc(S(=O)(=O)NC(=O)c3nc(N(C)c4cc(C)c(Nc5nc6ccccc6s5)nn4)ccc3-c3cnn(CC(C)C)c3C)cc2)C(C)(C)C)cc1` [I-326] were less than 50%, more than 1000 nM, more than 3000 nM and more than 10000 nM.
The corresponding values for `Cc1ncsc1-c1ccc([C@H](C)NC(=O)[C@@H]2C[C@@H](O)CN2C(=O)[C@@H](NC(=O)CCCCc2ccc(NC(=O)c3nc(N4CCc5cccc(C(=O)Nc6nc7ccccc7s6)c5C4)ccc3-c3cnn(CC4CCCCC4)c3C)cc2)C(C)(C)C)cc1` [I-298] are less than 50%, 500 to 1000 nM, 100 to 1000 nM and 1000 to 10000 nM.
